{"source": "ChEMBL document CHEMBL1132184", "about": "“Two-stage method for protein-ligand docking” (J Med Chem, 1999)", "molecular_target": "Prothrombin (Homo sapiens, UniProt P00734)", "assay": "Binding affinity against thrombin", "note": "pKi: −log10 of the molar value.", "data": [{"smiles": "N=C(N)C[C@H]1CC[C@@H](NC(=O)[C@@H]2CCCN2C(=O)[C@@H](Cc2ccccc2)NS(=O)(=O)Cc2ccccc2)CC1", "values": [{"measurement": "pKi", "value": 9.57}]}]}
